From the NIST ThermoML archive (doi:10.1021/je049895b)
Values joined by “and” are separate entries in the source; they are usually repeats but may differ in a detail not shown here. Identical values can stand only once.

Tests used:
[1] = 101.33 kPa, Liquid; for viscosity: Capillary tube (Ostwald / Ubbelohde) method
[2] = xn = mol fraction of the nth substance listed; conditions: 101.33 kPa, Liquid; for viscosity: Capillary tube (Ostwald / Ubbelohde) method

C1CCCC1 [cyclopentane]
[1]
Conditions	mass density [kg/m3]	speed of sound [m/s]	viscosity [mPa·s]
293.15 K	744.43	1232	0.438
298.15 K	739.47	1206	0.415
303.15 K	734.47	1180	0.394
308.15 K	729.42	1154	0.374
313.15 K	724.32	1129	0.355

COC(=O)OC [dimethyl carbonate]
[1]
Conditions	mass density [kg/m3]	speed of sound [m/s]	viscosity [mPa·s]
293.15 K	1069.9	1220	0.623
298.15 K	1063.33	1198	0.584
303.15 K	1056.71	1177	0.549
308.15 K	1050.07	1155	0.517
313.15 K	1043.39	1134	0.488

CCOC(=O)OCC [diethyl carbonate] + C1CCCC1
[2], x1 = 1
Conditions	mass density [kg/m3]	speed of sound [m/s]	viscosity [mPa·s]
293.15 K	974.8	1197	0.809
298.15 K	969.21	1177	0.75
303.15 K	963.58	1156	0.702
308.15 K	957.93	1136	0.658
313.15 K	952.26	1116	0.618

COC(=O)OC [dimethyl carbonate] + C1CCCC1
[2], x1 = 1
Conditions	mass density [kg/m3]	speed of sound [m/s]	viscosity [mPa·s]
293.15 K	1069.9	1220	0.623
298.15 K	1063.33	1198	0.584
303.15 K	1056.71	1177	0.549
308.15 K	1050.07	1155	0.517
313.15 K	1043.39	1134	0.488

CCOC(=O)OCC [diethyl carbonate]
[1]
Conditions	mass density [kg/m3]	speed of sound	viscosity [mPa·s]
293.15 K	974.8	1197 m/s and 1198 m/s	0.809
298.15 K	969.21	1177 m/s	0.75
303.15 K	963.58	1156 m/s and 1157 m/s	0.702
308.15 K	957.93	1136 m/s	0.658
313.15 K	952.26	1116 m/s	0.618

CC1CCCCC1 [methylcyclohexane] + CCOC(=O)OCC
[2], x2 = 0
Conditions	speed of sound [m/s]	viscosity [mPa·s]
293.15 K	1237	0.729
298.15 K	1215	0.681
303.15 K	1193	0.637
308.15 K	1172	0.598
313.15 K	1150	0.562

CC1CCCCC1 [methylcyclohexane]
[1]
Conditions	speed of sound [m/s]	viscosity [mPa·s]
293.15 K	1237	0.729
298.15 K	1215	0.681
303.15 K	1193	0.637
308.15 K	1172	0.598
313.15 K	1150	0.562
